Laboratory results as given in ChEMBL document CHEMBL1201862, “PubChem BioAssay data set” (2004).
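Assay format: 96-well plates, 48-hour exposure. GI50 is the concentration that inhibits growth by half.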 Calls of active or inactive are those of the source. Rule as the data show it: active = GI50 up to about 1.1 µM and inactive = higher.

Tests used:
Experiment in all cases: NCI tumour cell line growth inhibition, 48 h
[1] = tested on: SNB-75
[2] = tested on: SF-295
[3] = tested on: SK-MEL-5
[4] = tested on: NCI-H460
[5] = tested on: U-251
[6] = tested on: CAKI-1
[7] = tested on: SN12C
[8] = tested on: A549
[9] = tested on: HOP-92
[10] = tested on: 786-0
[11] = tested on: OVCAR-3
[12] = tested on: RXF 393
[13] = tested on: MDA-N
[14] = tested on: BT-549
[15] = tested on: SK-OV-3
[16] = tested on: MDA-MB-435
[17] = tested on: CCRF-CEM
[18] = tested on: OVCAR-4
[19] = tested on: TK-10

Measured: GI50

c1cc(-c2ccc(-c3ccc(C4=NCCCN4)cc3)o2)ccc1C1=NCCCN1
inactive: [1] 43 µM | [2] 24.2 µM | [3] 22.8 µM | [4] 14.6 µM | [5] 33.3 µM | [6] 74.1 µM | [7] 4.18 µM | [8] 8.2 µM | [9] 32 µM | [10] 61.5 µM | [11] > 100 µM | [12] > 100 µM | [13] 32.6 µM | [14] 35.4 µM | [15] > 100 µM | [16] 33.5 µM | [17] > 100 µM | [18] > 100 µM | [19] 50.2 µM

Cc1ccc(-c2c3nc(c(-c4ccc(C)cc4)c4ccc([nH]4)c(-c4ccc(OCC5COC(C)(C)O5)cc4)c4nc(c(-c5ccc(C)cc5)c5ccc2[nH]5)C=C4)C=C3)cc1 (stereo not drawn)
inactive: [1] 10.2 µM | [2] 20.5 µM | [3] > 31.6 µM | [4] > 31.6 µM | [5] > 31.6 µM | [6] > 100 µM | [7] > 31.6 µM | [8] > 31.6 µM | [9] > 100 µM | [10] > 31.6 µM | [11] > 31.6 µM | [12] > 10 µM | [13] > 31.6 µM | [14] > 100 µM | [15] > 10 µM | [16] > 31.6 µM | [17] > 10 µM | [18] > 31.6 µM | [19] 21 µM

C/C(CC(O)(C(F)(F)F)C(F)(F)F)=N\O
inactive: [1] > 10 µM | [2] > 10 µM | [3] > 10 µM | [4] > 10 µM | [5] > 10 µM | [6] > 10 µM | [7] > 10 µM | [8] > 10 µM | [9] > 10 µM | [10] > 10 µM | [11] > 10 µM | [12] > 10 µM | [13] > 10 µM | [14] > 10 µM | [15] > 10 µM | [16] > 10 µM | [17] > 10 µM | [18] > 10 µM | [19] > 10 µM

C=CCc1oc(C)nc1CCCC
inactive: [1] > 100 µM | [2] > 100 µM | [3] > 100 µM | [4] > 100 µM | [5] > 100 µM | [6] > 100 µM | [7] > 100 µM | [8] > 100 µM | [9] > 100 µM | [10] > 100 µM | [11] > 100 µM | [12] > 100 µM | [13] > 100 µM | [14] > 100 µM | [15] > 100 µM | [16] > 100 µM | [17] > 100 µM | [18] > 100 µM | [19] > 100 µM

Cc1c[nH]c(C(=O)O)c1-c1ccc2c(-c3ccccc3)nc3ccccc3n12
inactive: [1] 17.5 µM | [2] 22.7 µM | [3] 30.5 µM | [4] 22.9 µM | [5] 48.3 µM | [6] 34.7 µM | [7] 30.7 µM | [8] 33.7 µM | [9] 32.9 µM | [10] 33.3 µM | [11] 16.4 µM | [12] 18.2 µM | [13] 19 µM | [14] 30.6 µM | [15] 32.1 µM | [16] 23.2 µM | [17] 36.3 µM | [18] 41 µM | [19] 29.2 µM

COc1ccc(SCc2cc(OCc3ccccc3)c(OCc3ccccc3)c(OCc3ccccc3)c2)cc1
inactive: [1] 1.58 µM | [2] 1.87 µM | [3] 1.84 µM | [4] 2.38 µM | [5] 1.77 µM | [6] 1.6 µM | [7] 1.79 µM | [8] 2.16 µM | [9] 1.65 µM | [10] 1.55 µM | [11] 1.65 µM | [12] 1.92 µM | [13] 1.83 µM | [14] 2.24 µM | [15] 1.77 µM | [16] 1.76 µM | [17] 1.72 µM | [18] 1.8 µM | [19] 1.89 µM

COc1ccc(NS(=O)(=O)c2ccc(NC(NC(=O)CC(C)C)(C(F)(F)F)C(F)(F)F)cc2)nn1
inactive: [1] > 100 µM | [2] > 100 µM | [3] > 100 µM | [4] > 100 µM | [5] > 100 µM | [6] > 100 µM | [7] > 100 µM | [8] > 100 µM | [9] > 100 µM | [10] > 100 µM | [11] > 100 µM | [12] > 100 µM | [13] > 100 µM | [14] > 100 µM | [15] > 100 µM | [16] > 100 µM | [17] > 100 µM | [18] > 100 µM | [19] > 100 µM
